{"source": "paper PMC10313368", "about": "(The Journal of Clinical Investigation, 2023)", "key": {"[1]": {"system": "OIR mice", "assay": "Retinal NV in the oxygen-induced retinopathy (OIR) mouse model", "format": "in vivo", "set-up": "Figure 14 C (retinal NV, OIR) / Figure 14 E (retinal NV, OIR): unit not given here", "source_text": "To characterize the contribution of these other HIF-regulated angiogenic factors to the promotion of ischemia-driven retinal NV in vivo, we used the classic oxygen-induced retinopathy (OIR) model characterized by Smith and colleagues ([35]). In stage 1 of this model, P7 pups are exposed to hyperoxia (75% O2) for 5 consecutive days (P7–P12), resulting in obliteration of the posterior retinal vasculature. In stage 2, pups (at P12) are returned to room air (21% O2). The resulting relative ischemia promotes the expression of angiogenic mediators that stimulate the development of retinal NV (peaking at P17; Figure 2A). […]\nAnimal studies. Eight-week-old pathogen-free female C57BL/6 mice were obtained from The Jackson Laboratory (JAX). Timed pregnant C57BL/6 mice were obtained from Charles River Laboratories. Mice heterozygous for HIF-1α have been previously described (2). Mice heterozygous for HIF-2α (strain number: 003266; common name: EPAS1 KO) were purchased […]\nOIR mouse model. OIR experiments were performed as previously described (1, 3). Briefly, C57BL/6 mice were placed in 75% O2 on P7. On P12, the mice were returned to room air and were […]\n(or vehicle) by intravitreal injection. Mice with body weight less than 6 g at P17 were excluded […]\nfrom analysis. Data were collected from both males and females and the results were combined since there was no apparent difference between sexes. Representative images for selected time points from a minimum of three independent experiments are shown. Data from 3-8 pups were obtained at each time point. […]\nIntraperitoneal (IP) injections. […]\nintraperitoneally using an insulin syringe in OIR pups. […]\nthe peritoneal cavity of neonatal C57BL/6 mice and STZ mice at indicated times, and the retinal vasculature and lysates for WB and qPCR were assessed at P17.\nIntraocular injections. Intravitreal injections were performed with a PLI-100A Pico-liter Microinjector (Warner Instruments, Harvard Bioscience) using pulled-glass micropipettes. Each micropipette was calibrated to deliver a 1 μl volume on depression of a foot switch. The mice were anesthetized with a ketamine (100 mg/kg) and xylazine (5mg/kg) mixture, and under a dissecting microscope, the sharpened tip of the micropipette was passed through the sclera just posterior to the limbus into the vitreous cavity and the foot switch was depressed, which caused fluid to […]\npenetrate into the vitreous space. […]\nmice for vascular permeability test, retinal vasculature, and lysates for WB and qPCR analysis.\nImmunoﬂuorescence assays. Details for antibodies are provided in Supplemental Table 1.\nImmunofluorescence assays in retinal organoids and mouse retinal tissues were performed as previously described (4). Briefly, mice were sacrificed using CO2 asphyxiation, and the eyes were enucleated and fixed with a solution of 4% paraformaldehyde in PBS (Thermo Scientific™) for two hours at RT, followed by washing with PBS for 10 minutes in a shaker. Retinas were isolated and incubated in 0.5% BSA solution overnight at 4 °C. Retinas were then washed with PBS 3 times for 10 minutes in the shaker and stained with isolectin B4 (Invitrogen; 1:200 dilution in PBS) overnight at 4 °C. After washing 3 times for 10 minutes each in the shaker, the retinas were mounted. Images were captured with Zeiss fluorescent microscope. Eight fields per eye (2 fields per petal) including area of neovascularization were selected and fluorescence intensity was measured by ImageJ software. […]\nThe eyes were enucleated and immediately immersed in 4% (wt/vol) paraformaldehyde for 2 hours at room temperature. Retinas were isolated and wholemounts prepared on clean glass slides and mounted vitreous side up under coverslips with antifade medium (Vectashield; Vector Laboratories, Burlingame, CA). Images were captured by Zeiss fluorescent microscope or confocal microscopy and fluorescence was quantified by the image J software (National Institutes"}, "[2]": {"target": "T1, HIF-2α (Mus musculus, UniProt P97481)", "T1 construct": "from tissue; host or cells: retina of C57BL/6 OIR pups", "T1 sequence (P97481 whole entry)": "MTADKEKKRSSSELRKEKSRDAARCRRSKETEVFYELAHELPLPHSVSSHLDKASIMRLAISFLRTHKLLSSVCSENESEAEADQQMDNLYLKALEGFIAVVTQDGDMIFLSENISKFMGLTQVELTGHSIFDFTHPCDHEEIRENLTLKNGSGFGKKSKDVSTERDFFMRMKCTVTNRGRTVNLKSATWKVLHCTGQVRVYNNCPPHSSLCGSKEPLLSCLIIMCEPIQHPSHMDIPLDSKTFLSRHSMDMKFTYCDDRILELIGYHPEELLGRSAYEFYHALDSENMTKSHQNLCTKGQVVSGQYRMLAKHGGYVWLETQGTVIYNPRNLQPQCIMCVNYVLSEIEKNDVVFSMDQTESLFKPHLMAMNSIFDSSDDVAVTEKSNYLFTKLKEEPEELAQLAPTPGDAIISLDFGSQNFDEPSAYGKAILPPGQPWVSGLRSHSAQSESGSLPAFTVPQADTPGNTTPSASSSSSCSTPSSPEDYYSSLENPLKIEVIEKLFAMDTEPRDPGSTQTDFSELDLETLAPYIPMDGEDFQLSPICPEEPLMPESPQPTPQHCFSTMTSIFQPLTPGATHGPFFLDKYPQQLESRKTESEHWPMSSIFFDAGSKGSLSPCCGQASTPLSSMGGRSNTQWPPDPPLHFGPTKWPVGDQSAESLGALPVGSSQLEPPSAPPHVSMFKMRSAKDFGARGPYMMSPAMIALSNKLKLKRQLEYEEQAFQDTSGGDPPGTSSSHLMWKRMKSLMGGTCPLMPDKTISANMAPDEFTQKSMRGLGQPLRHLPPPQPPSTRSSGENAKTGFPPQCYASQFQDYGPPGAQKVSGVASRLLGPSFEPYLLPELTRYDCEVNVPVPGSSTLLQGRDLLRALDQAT", "assay": "Western blot of HIF-2α protein accumulation in retina of OIR mice (P14)", "format": "in vivo", "protocol": "Immunoblot assays. Cells, neurosensory retina, and D120 retinal organoid lysates were subjected to 4–15% gradient SDS/PAGE (Invitrogen). Immunoblot (Western blot or WB) assays were performed as previously described (1).\nReverse transcription and quantitative real-time PCR. Total RNA was isolated from cultured cells or retinas with PureLinkTM RNA Mini Kit (Invitrogen #12183025), and cDNA was prepared with MuLV Reverse Transcriptase (Applied Biosystems). Quantitative real-time PCR was performed with Power SYBR Green PCR Master Mix (Applied Biosystems) and MyiQ Real-Time PCR Detection System (Bio-Rad). Normalization was done using cyclophilin A for mouse tissue and human cell lines. Primers are listed in Supplemental Table 2.\nAngiogenesis array. […]\ncDNA was prepared with QuantiTect® Reverse Transcription Kit (Qiagen, Cat# 205311). […]\n4444554). […] The data were analyzed by using HPRT1 as endogenous […]\nHUVEC cells, Euclidean distance was used to quantify the difference in qPCR screening. The Euclidean distance was calculated using “dist” function from R’s default stat library that measures the distance between 2 vectors (i.e., total qPCR expression values in control and treatment). […]\nSTZ-induced diabetes mouse model. […] Blood glucose was measured on experimental day 28 after 16 hours fasting and mice with blood glucose level > 250 mg/dL were considered […]"}, "[3]": {"details": "OIR mice, Figure 10E, individual values"}}, "note": "“And” between values parts separate entries of the source, which are not always exact repeats. Equal entries are not always repeated."}
{"smiles": "Brc1ccc2c(-c3csc(-c4c[nH]c5c(Br)cccc45)n3)c[nH]c2c1", "note": "[32-134D, 4-(6-bromo-1H-indol-3-yl)-2-(7-bromo-1H-indol-3-yl)thiazole]", "values": [{"measurement": "retinal NV in OIR mice (in words)", "setting": "[1]; 5 consecutive days of i.p. injections 20 mg/kg 32-134D", "value": "marked reduction in retinal NV"}, {"measurement": "Figure 14 C (retinal NV, OIR)", "setting": "[1]; 14ng intraocular, individual values", "value": "3.954 and 13.1715 and 11.5498 and 7.756 and 10.0719 and 10.2983"}, {"measurement": "Figure 14 C (retinal NV, OIR)", "setting": "[1]; 70ng intraocular, individual values", "value": "3.009 and 6.226 and 3.283 and 2.049 and 6.5224 and 7.021"}, {"measurement": "Figure 14 E (retinal NV, OIR)", "setting": "[1]; Figure 14E, 280ng intraocular, individual values", "value": "3.652 and 2.167 and 0.762 and 1.534 and 2.454 and 1.3869"}, {"measurement": "avascular area (%)", "setting": "[1]; [3]", "value": "39.7919% and 29.3948% and 27.2246% and 38.1203% and 35.7742% and 31.6081% and 33.2821% and 34.1%"}, {"measurement": "neovascular area (%)", "setting": "[1]; [3]", "value": "6.529% and 6.16% and 5.906% and 5.171% and 3.4% and 5.22% and 4.584% and 1.45%"}, {"measurement": "inhibition of retinal NV at P17", "setting": "[1]; OIR mice, single intraocular injection 32-134D 14 ng at P12", "value": "~75", "unit": "%"}, {"measurement": "inhibition of retinal NV at P17", "setting": "[1]; OIR mice, single intraocular injection 32-134D 280 ng at P12", "value": "approximately 85%"}, {"measurement": "HIF-2α protein accumulation in OIR mice", "setting": "[2]; single i.p. injection 20 mg/kg, P14", "value": "reduction"}, {"measurement": "accumulation of HIF-2α in OIR mice", "setting": "[2]; single intraocular injection 14 ng at P12, P14", "value": "effectively reduced"}]}
